Assay results: patent US10251897B2, “GLUT4 endocytosis inhibitor” (NISHIZAKI BIOINFORMATION RESEARCH INSTITUTE, priority 2014, dated 2019)

Assays:
GLUT4 [1] = assay: GLUT4 mobilization monitoring (cellular membrane distribution of GLUT4, Western blotting with anti-c-myc antibody); type: cell-based
Procedure: FIG. 1 is a graph showing that DOPE has an action to increase cellular membrane distribution of GLUT4 in differentiated 3T3L1-GLUT4myc adipocytes. The cells were not treated with (Control), or treated with 1 μM of various phospholipid derivatives and, after 20 min, lysed, and separated into the cytoplasm (C) fraction and cellular membrane (M) fraction, after which Western blotting was performed using an anti-c-myc antibody. […] P value, ANOVA (Bonferroni adjustment). NS; not significant. DOPE; 1,2-dioleoyl-sn-glycero-3-phosphoethanolamine, DAPE; 1,2-diarachidonoyl-sn-glycero-3-phosphoethanolamine, DPPE; 1,2-dipalmitoleoyl-sn-glycero-3-phosphoethanolamine, DLPE; 1,2-dilinoleoyl-sn-glycero-3-phosphoethanolamine.
(§1) 3T3L1-GLUT4myc fibroblast strain expressing GLUT4myc was used. The cells are constructed by inserting human c-MYC epitope (14 amino acids) into the first ectodomain. […]
(§2) The protein concentration of each fraction was measured using BCA protein assay kit (Thermo Fisher Scientific, Waltham, Mass., USA). […] The immunoreactivity was detected using ECL kit (Invitrogen), and visualized using a chemical luminescence detection system (chemiluminescence detection system; GE Healthcare, Piscataway, N.J., USA). The signal density was measured using an image analysis software (Image Gauge software; GE Healthcare).

GLUT4 [2] = assay: GLUT4 internal transfer (uptake) assay after insulin pre-treatment; type: cell-based; settings: insulin 100 nM 30 min then washed
Procedure: FIG. 2 is a graph showing that the GLUT4 cellular membrane distribution increasing action of DOPE derives from the suppression of GLUT4 endocytosis. 3T3L1-GLUT4myc adipocytes were treated with insulin (100 nM) for 30 min (−30-0 min), then washed to remove insulin (0 min), and DOPE (10 mM) was added to an extracellular solution. After incubation for 120 min, the cells were lysed, and separated into the cytoplasm (C) fraction and cellular membrane (M) fraction, after which Western blotting was performed using an anti-c-myc antibody. […] P value, ANOVA (Bonferroni adjustment). NS; not significant.
as §1
as §2, with “Healthcare). […]” for “Healthcare).”

PKC isozymes = assay: Cell free PKC assay, PKC isozymes; type: biochemical; settings: DOPE 100 μM, absence of TPA
Procedure: (§3) PKC activity was monitored in a cell-free system. (A) Given PKC isozyme was evaluated in the absence or presence of DOPE (100 μM). […] P value, compared to each PKC isozyme activation in the absence of DOPE, Dunnett's test. (B) The activity of PKCα was evaluated in the absence (control) or presence of DOPE (100 μM), in the absence or presence of TPA (1 μM). […] P value, Dunnett's test. TPA; 12-O-tetradecanoylphorbol-[…].
(§4) PKC activity in a cell-free system was quantified by the methods described in previous reports (Kanno T et al. J Lipid Res 2006; 47:1146-1156). In short, synthesized PKC substrate peptide (10 μM) was reacted with various PKC isozymes in a medium containing 20 mM Tris-HCl (pH 7.5), 5 mM magnesium acetate, 10 μM ATP, in the presence or absence of DOPE (100 μm), in the presence or absence of 1 μM TPA (12-O-tetradecanoylphorbol-13-acetate) at 30° C. for 5 min. […] They were applied on reversed-phase HPLC (LC-10ATvp, Shimadzu Co., Kyoto, Japan), and the peak of substrate peptide and the peak of a new resultant product were measured by the absorbance at 214 nm. The areas of unphosphorylated PKC substrate peptide and phosphorylated PKC substrate peptide were measured (total area corresponds to the concentration of PKC substrate peptide used in this Example), and the amount of the phosphorylated substrate peptide was calculated. […]

PKCα = PKCα (Homo sapiens, UniProt P17252); assay: Cell free PKC assay, PKCα activated by TPA; type: biochemical; settings: DOPE 100 μM, TPA 1 μM
Procedure: as §3, §4

Glucose tolerance test = type: in vivo, C57BL/KsJ-lepr^db/lepr^db mouse; settings: type 2 diabetes model mouse, DOPE 0.1, 1, 10 mg/kg oral 30 min before glucose 2 g/kg; 30, 60, 90 min
Procedure: FIG. 6 is a graph showing that DOPE decreases the serum glucose level in C57BL/KsJ-lepr^db/lepr^db mouse. The mouse was placed in glucose starvation for 12 hr, glucose (2 g/kg) was orally administered, the blood was recovered at a given time and serum glucose assay was performed. DOPE was orally administered at a given concentration (0-10 mg/kg) 30 min before administration of glucose. […] P value, Fisher's PLSD (Protected Least Significant Difference test).
C57BL/KsJ-lepr^db/lepr^db mouse (female, 8-week-old) (CLEA Japan; Tokyo, Japan) was used. Glucose tolerance test was performed using the mouse starved for 12 hr. Glucose (2 g/ml/kg body weight) was administered by gavage, and the time point thereof was taken as 0 h. DOPE (0, 0.1, 1, 10 mg/kg) was orally administered 30 min before administration of glucose. Brine was used for DOPE (0 mg/kg). The blood (10 μl) was collected from the tail vein at the time points of 30, 60, and 90 min, and each plasma sample which was labeled with 4-aminobenzyl ethyl ester (ABEE) and prepared from the obtained blood was loaded on high performance liquid chromatography (HPLC) system (LC-10ATvp; Shimadzu Co., Kyoto, Japan). The glucose concentration was calculated from a peak area/concentration analytical curve prepared using the standard glucose solution.

PKCα activity activated by TPA (PKCα)	Molecule	distribution of GLUT4 in cellular membrane (c-myc signal in cellular membrane fraction / total cells) (GLUT4 [1]; differentiated 3T3L1-GLUT4myc adipocytes, 1 μM phospholipid derivative, 20 min, vs Control)	endocytosis of GLUT4 transported onto the cellular membrane by insulin stimulation (GLUT4 [2]; 3T3L1-GLUT4myc adipocytes)	PKC activation (PKC isozyme activity, pmol/min) (PKC isozymes)	blood glucose level (Glucose tolerance test)	GLUT4 distribution on the cellular membrane (GLUT4 [1]; 3T3L1-GLUT4myc adipocytes 48 hr after siRNA transfection, vs NC siRNA)	decrease of GLUT4 on the cellular membrane by endocytosis after insulin stimulation (GLUT4 [2]; siRNA-transfected 3T3L1-GLUT4myc adipocytes, 120 min)
suppress PKCα activated by TPA	CCCCCCCC/C=C\CCCCCCCC(=O)OC[C@H](COP(=O)(O)OCCN)OC(=O)CCCCCCC/C=C\CCCCCCCC [DOPE, 1,2-Dioleoyl-sn-glycerol-3-phosphoethanolamine]	significantly increased	suppressed	not involved in PKC activation	decrease blood glucose level of type 2 diabetes model mouse in a dose dependent manner	–	–
–	PKCα siRNA: siRNA for PKCα, SEQ ID NO: 1 and 2, purchased from Ambion (chain 1 GAACGUGCAUGAGGUGAAATT; chain 2 UUUCACCUCAUGCACGUUCTT; chemistry not given here) [reference compound]	–	–	–	–	significantly increased	the decrease was suppressed
